Common to all, as to assay: NCI anticancer screen, dose series, 48 h
Experiment [1] has as its system EKVX.
The test system of experiment [2] is HL-60.
Experiment [3] relates to HOP-62.
Experiment [4] has as its system HT-29.
For experiment [5], the system named is IGROV-1.
The test system of experiment [6] is K562.
Experiment [7] deals with LOX IMVI.
The test system of experiment [8] is M14.
For experiment [9], the system named is OVCAR-3.
Experiment [10] relates to OVCAR-5.
The test system of experiment [11] is RPMI-8226.
Experiment [12] has as its system RXF 393.
For experiment [13], the system named is SK-MEL-2.
The test system of experiment [14] is TK-10.
The subject of experiment [15] is U-251.
Experiment [16] concerns UACC-257.
Experiment [17] deals with NCI-H226.
Experiment [18] deals with SK-OV-3.
Experiment [19] concerns UO-31.

These results are taken from ChEMBL document CHEMBL1201862, “PubChem BioAssay data set” (2004).

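Step 1: Grow cells in 96-well plates. Step 2: Expose to compound for 48 hours at 5 concentrations. Step 3: Interpolate endpoints linearly; if unreached, use highest concentration. GI50: concentration for 50% inhibition of growth.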 The source made the active and inactive calls. Cut-off read from the data, not from the text of the source: active = GI50 up to about 1.1 µM and inactive = higher.

For the compound `C/C(=N\NC(=S)N1CCCCCC1)c1nccnc1C`, the GI50 in [1] was 0.0188 µM (active); in experiment [2] it was 0.0508 µM (active); in [3], 35.3 µM (inactive); in experiment [4], 0.0719 µM (active); in experiment [5], < 0.01 µM (active); in experiment [6], 0.055 µM (active). Besides, the GI50 in experiment [7] is < 0.01 µM (active); in experiment [8], < 0.01 µM (active); in experiment [9] it was < 0.01 µM (active); in experiment [10], 0.169 µM (active); in experiment [11], 0.159 µM (active); in experiment [12], 0.231 µM (active). Besides, the GI50 was 12.8 µM (inactive) in [13], 0.56 µM (active) in experiment [14], 0.2 µM (active) in experiment [15] and < 0.01 µM (active) in experiment [16].
As for `C=CCc1cccc(C(=O)/C=C(O)/C=C/c2ccccc2Cl)c1O`, the GI50 in [1] is 29.5 µM (inactive); in [3], 16.6 µM (inactive); in experiment [4], 9.93 µM (inactive); in experiment [5] it was 0.352 µM (active); in experiment [6], 2.11 µM (inactive); in [7], 7.01 µM (inactive). In addition, the GI50 in experiment [8] was 24.5 µM (inactive); in [17], 18.8 µM (inactive); in experiment [9], 16.6 µM (inactive); in experiment [10], 33.4 µM (inactive); in [11] it was 6.67 µM (inactive); in [12], 19.5 µM (inactive). Besides, the GI50 in experiment [13] is 10.4 µM (inactive); in experiment [18], 23.6 µM (inactive); in [14], 42.7 µM (inactive); in experiment [15], 5.66 µM (inactive); in experiment [16], 13.8 µM (inactive); in experiment [19], 9.18 µM (inactive).
Turning to `CCCCCCCCCCCCCC(=O)NCC(OCC)OCC`, the GI50 in [1], in [2], in experiment [3], in experiment [4], in experiment [5] and in experiment [7] was > 100 µM (inactive) each time. Also, the GI50 in experiment [8], in [17], in [9], in experiment [10], in experiment [12] and in [13] was > 100 µM (inactive) throughout. Besides, the GI50 in experiment [18], in [14], in [15], in experiment [16] and in experiment [19] was > 100 µM (inactive) each time.
For `O=C1C=C(Nc2ccccc2C(=O)c2ccccc2)c2ccccc2C1=O`, the GI50 in experiment [1], in experiment [3], in [4], in experiment [5], in experiment [8] and in [17] was > 100 µM (inactive) throughout. The GI50 is 70 µM (inactive) in [9]; > 100 µM (inactive) in experiment [10]; 51.6 µM (inactive) in [11]; > 100 µM (inactive) in experiment [12]; > 100 µM (inactive) in [13]; > 100 µM (inactive) in [18]. Besides, the values for the GI50 in experiment [15], in [16] and in experiment [19] were 70.8 µM (inactive), 5.85 µM (inactive) and > 100 µM (inactive), respectively.
As for `CCn1c2ccccc2c2c(-c3ccccc3)cc3c(c21)C(=O)N(c1ccccc1)C3=O`, the GI50 in experiment [1] is > 100 µM (inactive); in experiment [2], > 100 µM (inactive); in [3], > 10 µM (inactive); in [5], > 100 µM (inactive); in [6], > 100 µM (inactive); in [7], > 100 µM (inactive). In addition, the GI50 in experiment [8], in [17], in [9], in [10], in experiment [13] and in [18] was > 100 µM (inactive) each time. In addition, the GI50 in [14], in [15], in [16] and in [19] was > 100 µM (inactive) each time.
In the case of `COC(=O)C1=C(c2cc(OC)c(OC)c(OC)c2)O[C@H](c2ccc3c(c2)OCO3)[C@H]1COC(C)=O`, the GI50 in experiment [1] was 41.6 µM (inactive); in experiment [2], 15.6 µM (inactive); in experiment [3], 21.5 µM (inactive); in experiment [4], 18.6 µM (inactive); in [5], 22.2 µM (inactive); in experiment [6], 21.3 µM (inactive). In addition, the GI50 is 32.1 µM (inactive) in experiment [7]; 15.3 µM (inactive) in [8]; 33 µM (inactive) in experiment [17]; 30.5 µM (inactive) in experiment [9]; 48.6 µM (inactive) in experiment [10]; 24.2 µM (inactive) in experiment [11]. In addition, the GI50 is 27.2 µM (inactive) in experiment [13]; 23.1 µM (inactive) in [18]; 39.2 µM (inactive) in experiment [14]; 24.1 µM (inactive) in experiment [15]; 40.7 µM (inactive) in experiment [16]; 20.9 µM (inactive) in experiment [19].
Consider `COc1cccc(-n2c(N)c(-c3nc4cc(C(F)(F)F)ccc4s3)c3ccc([N+](=O)[O-])cc3c2=O)c1`, for which the GI50 in experiment [1], in experiment [3], in experiment [4], in [6], in experiment [8] and in experiment [17] was > 100 µM (inactive) in each case. Besides, the GI50 in experiment [9], in [10], in [11], in experiment [13], in experiment [18] and in [14] was > 100 µM (inactive) in each case. Moreover, the GI50 in [15], in experiment [16] and in experiment [19] was > 100 µM (inactive) in each case.
Consider `CCOC(=O)NNC(=O)NC12CC3CC(CC(C3)C1)C2`, for which the GI50 in [1], in experiment [3], in experiment [4], in experiment [5], in experiment [6] and in experiment [7] was > 100 µM (inactive) each time. For the same compound, the GI50 in experiment [8], in experiment [17], in experiment [9], in [10], in experiment [12] and in experiment [13] was > 100 µM (inactive) each time. The GI50 in [18], in [14], in [15], in [16] and in [19] was > 100 µM (inactive) in each case.
Turning to `CCOC(=O)C(=O)Nc1nc2ccc(C)cc2s1`, the GI50 in experiment [1], in [3], in [4], in experiment [5], in experiment [6] and in experiment [8] was > 100 µM (inactive) each time. Also, the GI50 in experiment [17], in [9], in experiment [10], in experiment [11], in experiment [13] and in experiment [18] was > 100 µM (inactive) throughout. Moreover, the GI50 in experiment [15], in [16] and in [19] was > 100 µM (inactive) in each case.
As for `CCOC(=O)C(C(=O)OCC)=c1sc(=C(C(=O)OCC)C(=O)OCC)s1`, the GI50 in experiment [1], in experiment [2], in [3], in [4], in [5] and in experiment [6] was > 100 µM (inactive) in each case. For the same compound, the GI50 in [7], in experiment [8], in experiment [9], in experiment [10], in experiment [11] and in experiment [12] was > 100 µM (inactive) throughout. Besides, the GI50 in [13], in [18], in experiment [14] and in experiment [16] was > 100 µM (inactive) in each case.
For `COc1ccc(NC(=O)c2oc3cc(O)ccc3c(=O)c2C)c([N+](=O)[O-])c1`, the GI50 in [1], in [2], in experiment [3], in [4], in [5] and in [6] was > 100 µM (inactive) in each case. Further, the GI50 in experiment [7], in [8], in [17], in [9], in experiment [10] and in experiment [12] was > 100 µM (inactive) each time. The GI50 in experiment [13], in experiment [18], in [14], in [15], in experiment [16] and in [19] was > 100 µM (inactive) each time.
Regarding `COc1ccc(C(Cc2cc(OC)c(OC)c(OC)c2)C(=O)O)cc1` (stereo not drawn), the GI50 in experiment [1] was 63 µM (inactive); in [3], > 100 µM (inactive); in experiment [4] it was 37.6 µM (inactive); in [5] it was 76.2 µM (inactive); in [6] it was 40.4 µM (inactive); in [7] it was > 100 µM (inactive). For the same compound, the GI50 in experiment [8] is 44.6 µM (inactive); in [17], 13.6 µM (inactive); in [9], 24.3 µM (inactive); in experiment [10], > 100 µM (inactive); in [11] it was 55.8 µM (inactive); in [13], 52 µM (inactive). Moreover, the GI50 in experiment [18] is 52.6 µM (inactive); in experiment [14], > 100 µM (inactive); in [15], > 100 µM (inactive); in experiment [16], 54.3 µM (inactive); in experiment [19] it was 72.3 µM (inactive).
